In patent US9995734B2, “Human T cell line assay for evaluating the immunologic identity of glatiramer acetate preparations” (Mylan Inc., priority 2013, dated 2018):
“And” between values parts separate entries of the source, which are not always exact repeats. Equal entries are not always repeated.

Legend:
[1] = system: Donor 3 GMA T-Cell Lines; test: ATP proliferation assay (CellTiter Glo), Donor 3 GMA T-cell lines, incl. reactivity to non-canonical GA peptides; type: cell-based, human; settings: for proliferation response to non-canonical GA peptides: 0, 1, 3, 10, 30 μg/mL; for Non-Canonical Peptide Non-Reactivity: proliferation <2 times no antigen control; for Non-Canonical Peptide Reactivity: at least one proliferation value >=2 times no antigen control
[2] = system: Donor 3 COP T-Cell Lines; test: ATP proliferation assay (CellTiter Glo), Donor 3 COP T-cell lines, incl. reactivity to non-canonical GA peptides; type: cell-based, human; settings: for Non-Canonical Peptide Non-Reactivity: proliferation <2 times no antigen control

For poly (Glu-Lys-Tyr; 6:3:1) [GLT 631], the “proliferation response to non-canonical GA peptides” value ([1]; 165-B5G and 165-E7G, Day 81) was “responded well”, the “Non-Canonical Peptide Non-Reactivity” value ([1]; 165-B5G) was “GLT 631” and the “Non-Canonical Peptide Non-Reactivity” value ([1]; 165-C5G) was “GLT 631”. The “Non-Canonical Peptide Reactivity” value ([1]; 165-E7G) was “GLT 631”, the “Non-Canonical Peptide Non-Reactivity” value ([1]; 165-E9G) was “GLT 631” and the “Non-Canonical Peptide Non-Reactivity” value ([1]; 165-F5G) was “GLT 631”. For the same substance, the “Non-Canonical Peptide Non-Reactivity” value ([1]; 165-F10G) was “GLT 631”, the “proliferation response to non-canonical GA peptides” value ([1]; 165-H11G, Day 50) was “responded” and the “Non-Canonical Peptide Reactivity” value ([1]; 165-H11G) was “GLT 631”. The “Reactive T-Cell Line” value ([1]; Donor 3 GMA lines, at least a 50% increase in proliferation relative to a control after stimulation with the non-canonical GA peptide) was 165-H11G (Donor 3), the “Nonreactive T-Cell Line” value ([1]; Donor 3 GMA lines, stimulation with the non-canonical GA peptide) was 165-B5G (Donor 3) and 165-C5G (Donor 3) and 165-C8G (Donor 3) and 165-E7G (Donor 3) and 165-E9G (Donor 3) and 165-F5G (Donor 3) and 165-F10G (Donor 3) and the “Proliferation (luminescent ATP assay), Mean” value (“Proliferation … Mean” for short) ([1]; T-cell line 165-05G, 1 μg/mL antigen, Day 50 of culturing, No Antigen Value 2149) was 1871 RLU. The “Proliferation … Mean” value ([1]; T-cell line 165-05G, 3 μg/mL antigen, Day 50 of culturing, No Antigen Value 2149) was 2268 RLU, the “Proliferation … Mean” value ([1]; T-cell line 165-05G, 10 μg/mL antigen, Day 50 of culturing, No Antigen Value 2149) was 2256 RLU and the “Proliferation … Mean” value ([1]; T-cell line 165-05G, 30 μg/mL antigen, Day 50 of culturing, No Antigen Value 2149) was 2137 RLU. For the same substance, the “Proliferation … Mean” value ([1]; T-cell line 165-B5G, 1 μg/mL antigen, Day 81 of culturing, No Antigen Value 2432) was 4288 RLU, the “Proliferation … Mean” value ([1]; T-cell line 165-B5G, 1.25 μg/mL antigen, Day 55 of culturing, No Antigen Value 846) was 1054 RLU and the “Proliferation … Mean” value ([1]; T-cell line 165-B5G, 2.5 μg/mL antigen, Day 55 of culturing, No Antigen Value 846) was 1159 RLU. For the same substance, the “Proliferation … Mean” value ([1]; T-cell line 165-B5G, 3 μg/mL antigen, Day 81 of culturing, No Antigen Value 2432) was 5153 RLU, the “Proliferation … Mean” value ([1]; T-cell line 165-B5G, 5 μg/mL antigen, Day 55 of culturing, No Antigen Value 846) was 1687 RLU and the “Proliferation … Mean” value ([1]; T-cell line 165-B5G, 10 μg/mL antigen, Day 55 of culturing, No Antigen Value 846) was 3589 RLU. For the same substance, the “Proliferation … Mean” value ([1]; T-cell line 165-B5G, 10 μg/mL antigen, Day 81 of culturing, No Antigen Value 2432) was 11847 RLU, the “Proliferation … Mean” value ([1]; T-cell line 165-B5G, 30 μg/mL antigen, Day 81 of culturing, No Antigen Value 2432) was 11416 RLU and the “Proliferation … Mean” value ([1]; T-cell line 165-C5G, 1.25 μg/mL antigen, autologous B-LCL) was 485 RLU. The “Proliferation … Mean” value ([1]; T-cell line 165-C5G, 2.5 μg/mL antigen, autologous B-LCL) was 552 RLU, the “Proliferation … Mean” value ([1]; T-cell line 165-C5G, 5 μg/mL antigen, autologous B-LCL) was 585 RLU and the “Proliferation … Mean” value ([1]; T-cell line 165-C5G, 10 μg/mL antigen, autologous B-LCL) was 579 RLU. For the same substance, the “Proliferation … Mean” value ([1]; T-cell line 165-E7G, 1 μg/mL antigen, Day 81 of culturing, No Antigen Value 2145) was 3992 RLU, the “Proliferation … Mean” value ([1]; T-cell line 165-E7G, 1.25 μg/mL antigen, autologous B-LCL, Day 55) was 2983 RLU and the “Proliferation … Mean” value ([1]; T-cell line 165-E7G, 2.5 μg/mL antigen, autologous B-LCL, Day 55) was 3783 RLU. For the same substance, the “Proliferation … Mean” value ([1]; T-cell line 165-E7G, 3 μg/mL antigen, Day 81 of culturing, No Antigen Value 2145) was 5133 RLU, the “Proliferation … Mean” value ([1]; T-cell line 165-E7G, 5 μg/mL antigen, autologous B-LCL, Day 55) was 5821 RLU and the “Proliferation … Mean” value ([1]; T-cell line 165-E7G, 10 μg/mL antigen, Day 81 of culturing, No Antigen Value 2145) was 12006 RLU. The “Proliferation … Mean” value ([1]; T-cell line 165-E7G, 10 μg/mL antigen, autologous B-LCL, Day 55) was 5710 RLU, the “Proliferation … Mean” value ([1]; T-cell line 165-E7G, 30 μg/mL antigen, Day 81 of culturing, No Antigen Value 2145) was 12836 RLU and the “Proliferation … Mean” value ([1]; T-cell line 165-E9G, 1 μg/mL antigen, Day 50 of culturing, No Antigen Value 1742) was 1630 RLU. The “Proliferation … Mean” value ([1]; T-cell line 165-E9G, 1.25 μg/mL antigen, autologous B-LCL) was 142 RLU, the “Proliferation … Mean” value ([1]; T-cell line 165-E9G, 2.5 μg/mL antigen, autologous B-LCL) was 195 RLU and the “Proliferation … Mean” value ([1]; T-cell line 165-E9G, 3 μg/mL antigen, Day 50 of culturing, No Antigen Value 1742) was 1600 RLU. The “Proliferation … Mean” value ([1]; T-cell line 165-E9G, 5 μg/mL antigen, autologous B-LCL) was 233 RLU, the “Proliferation … Mean” value ([1]; T-cell line 165-E9G, 10 μg/mL antigen, autologous B-LCL) was 312 RLU and the “Proliferation … Mean” value ([1]; T-cell line 165-E9G, 30 μg/mL antigen, Day 50 of culturing, No Antigen Value 1742) was 2152 RLU. The “Proliferation … Mean” value ([1]; T-cell line 165-E9G, 10 μpg/mL antigen, Day 50 of culturing, No Antigen Value 1742) was 2341 RLU, the “Proliferation … Mean” value ([1]; T-cell line 165-F5G, 1.25 μg/mL antigen, autologous B-LCL) was 131 RLU and the “Proliferation … Mean” value ([1]; T-cell line 165-F5G, 2.5 μg/mL antigen, autologous B-LCL) was 143 RLU. The “Proliferation … Mean” value ([1]; T-cell line 165-F5G, 5 μg/mL antigen, autologous B-LCL) was 176 RLU, the “Proliferation … Mean” value ([1]; T-cell line 165-F5G, 10 μg/mL antigen, autologous B-LCL) was 110 RLU and the “Proliferation … Mean” value ([1]; T-cell line 165-F10G, 1 μg/mL antigen, Day 50 of culturing, No Antigen Value 3752) was 3363 RLU. For the same substance, the “Proliferation … Mean” value ([1]; T-cell line 165-F10G, 1.25 μg/mL antigen, autologous B-LCL) was 1012 RLU, the “Proliferation … Mean” value ([1]; T-cell line 165-F10G, 2.5 μg/mL antigen, autologous B-LCL) was 1389 RLU and the “Proliferation … Mean” value ([1]; T-cell line 165-F10G, 3 μg/mL antigen, Day 50 of culturing, No Antigen Value 3752) was 3061 RLU. For the same substance, the “Proliferation … Mean” value ([1]; T-cell line 165-F10G, 5 μg/mL antigen, autologous B-LCL) was 2620 RLU, the “Proliferation … Mean” value ([1]; T-cell line 165-F10G, 10 μg/mL antigen, Day 50 of culturing, No Antigen Value 3752) was 4823 RLU and the “Proliferation … Mean” value ([1]; T-cell line 165-F10G, 10 μg/mL antigen, autologous B-LCL) was 2505 RLU. The “Proliferation … Mean” value ([1]; T-cell line 165-F10G, 30 μg/mL antigen, Day 50 of culturing, No Antigen Value 3752) was 4568 RLU, the “Proliferation … Mean” value ([1]; T-cell line 165-H11G, 1 μg/mL antigen, Day 50 of culturing, No Antigen Value 1485) was 2763 RLU and the “Proliferation … Mean” value ([1]; T-cell line 165-H11G, 1.25 μg/mL antigen, autologous B-LCL) was 29 RLU. The “Proliferation … Mean” value ([1]; T-cell line 165-H11G, 2.5 μg/mL antigen, autologous B-LCL) was 344 RLU, the “Proliferation … Mean” value ([1]; T-cell line 165-H11G, 3 μg/mL antigen, Day 50 of culturing, No Antigen Value 1485) was 2875 RLU and the “Proliferation … Mean” value ([1]; T-cell line 165-H11G, 5 μg/mL antigen, autologous B-LCL) was 448 RLU. For the same substance, the “Proliferation … Mean” value ([1]; T-cell line 165-H11G, 10 μg/mL antigen, Day 50 of culturing, No Antigen Value 1485) was 3028 RLU, the “Proliferation … Mean” value ([1]; T-cell line 165-H11G, 10 μg/mL antigen, autologous B-LCL) was 435 RLU and the “Proliferation … Mean” value ([1]; T-cell line 165-H11G, 30 μg/mL antigen, Day 50 of culturing, No Antigen Value 1485) was 3093 RLU. For the same substance, the “Non-Canonical Peptide Non-Reactivity” value ([2]; 165-B6C) was “GLT 631”, the “Non-Canonical Peptide Non-Reactivity” value ([2]; 165-C4C) was “GLT 631” and the “Non-Canonical Peptide Non-Reactivity” value ([2]; 165-C7C) was “GLT 631”. For the same substance, the “proliferation response to non-canonical peptides” value ([2]; 165-E3C, separate experiment) was “did not react”, the “Non-Canonical Peptide Non-Reactivity” value ([2]; 165-F3C) was “GLT 631” and the “Non-Canonical Peptide Non-Reactivity” value ([2]; 165-F6C) was “GLT 631”. For the same substance, the “Non-Canonical Peptide Non-Reactivity” value ([2]; 165-U3C (so in the source)) was “GLT 631”, the “Nonreactive T-Cell Line” value ([2]; Donor 3 COP lines, stimulation with the non-canonical GA peptide) was 165-B6C (Donor 3) and 165-C4C (Donor 3) and 165-C7C (Donor 3) and 165-E3C (Donor 3) and 165-F3C (Donor 3) and 165-F6C (Donor 3) and the “Proliferation … Mean” value ([2]; T-cell line 165-C4C, 1 μg/mL antigen, Day 66 of culture, 0 μg/mL 1881) was 2465. The “Proliferation … Mean” value ([2]; T-cell line 165-C4C, 3 μg/mL antigen, Day 66 of culture, 0 μg/mL 1881) was 2677, the “Proliferation … Mean” value ([2]; T-cell line 165-C4C, 10 μg/mL antigen, Day 66 of culture, 0 μg/mL 1881) was 2939 and the “Proliferation … Mean” value ([2]; T-cell line 165-C7C, 1.25 μg/mL antigen, autologous B-LCL) was 273 RLU. For the same substance, the “Proliferation … Mean” value ([2]; T-cell line 165-C7C, 2.5 μg/mL antigen, autologous B-LCL) was 219 RLU, the “Proliferation … Mean” value ([2]; T-cell line 165-C7C, 5 μg/mL antigen, autologous B-LCL) was 273 RLU and the “Proliferation … Mean” value ([2]; T-cell line 165-C7C, 10 μg/mL antigen, autologous B-LCL) was 219 RLU. The “Proliferation … Mean” value ([2]; T-cell line 165-F3C, 1 μg/mL antigen, Day 77 of culture, 0 μg/mL 1563) was 2325, the “Proliferation … Mean” value ([2]; T-cell line 165-F3C, 3 μg/mL antigen, Day 77 of culture, 0 μg/mL 1563) was 2557 and the “Proliferation … Mean” value ([2]; T-cell line 165-F3C, 10 μg/mL antigen, Day 77 of culture, 0 μg/mL 1563) was 2724. The “Proliferation … Mean” value ([2]; T-cell line 165-F6C, 1.25 μg/mL antigen, Day 76 of culture, No Antigen value 517) was 501, the “Proliferation … Mean” value ([2]; T-cell line 165-F6C, 2.5 μg/mL antigen, Day 76 of culture, No Antigen value 517) was 416 and the “Proliferation … Mean” value ([2]; T-cell line 165-F6C, 5 μg/mL antigen, Day 76 of culture, No Antigen value 517) was 482. The “Proliferation … Mean” value ([2]; T-cell line 165-F6C, 10 μg/mL antigen, Day 76 of culture, No Antigen value 517) was 474.
